Where “and” joins values, the source holds several entries; their conditions need not be identical. Equal entries are not always repeated.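 Compound exposure: 48 hours, 5 concentrations, 96-well plates. At the GI50, growth is halved. TGI denotes the concentration required for complete inhibition of growth.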

In PubChem BioAssay (NCI) one finds GI50 and TGI data, which are given here for eleven molecules.

Test systems include LOX IMVI melanoma; RXF 393 renal; T-47D breast; TK-10 renal; UO-31 renal; UACC-257 melanoma; HCT-15 colon; SK-OV-3 ovarian.
Common to all, as to assay: NCI-60 cell line screen, 48 h

Turning to `COc1cc(Nc2c(C#N)cnc3cc(OCCCN4CCN(C)CC4)c(OC)cc23)c(Cl)cc1Cl`, the GI50 in the test on LOX IMVI melanoma is 1.15 µM; in the test with RXF 393 renal it was 0.85 µM; with T-47D breast, 3.1 µM; in the test on TK-10 renal it was 0.469 µM; with UO-31 renal it was 0.687 µM; in the test on UACC-257 melanoma it was 1.76 µM. The figures for the GI50 in the test on HCT-15 colon and in the test with SK-OV-3 ovarian were 1.21 µM and 0.884 µM, respectively. Besides, the TGI in the test with LOX IMVI melanoma stood at 2.75 µM; in the test on RXF 393 renal, 6.02 µM; in the test with T-47D breast, 18.2 µM; with TK-10 renal it was 11.3 µM; in the test with UO-31 renal, 7.75 µM; in the test with UACC-257 melanoma it was 3.46 µM. Further, the TGI in the test on HCT-15 colon worked out at 11.8 µM; in the test on SK-OV-3 ovarian, 12.3 µM.
With `CCn1cnc(C[C@H](NC(=O)[C@@H](NC(=O)Nc2cc(C(F)(F)F)cc(C(F)(F)F)c2)C(C)C)C(=O)OC)c1`, the GI50 with LOX IMVI melanoma is 2.5 µM; in the test on RXF 393 renal it was 1.73 µM; in the test on T-47D breast, 3.66 µM; in the test with TK-10 renal, 1.88 µM; in the test on UO-31 renal, above 10 µM; in the test on UACC-257 melanoma, above 10 µM. Moreover, the GI50 with HCT-15 colon was above 10 µM; in the test with SK-OV-3 ovarian it was 2.06 µM. Besides, the TGI is 7.43 µM with LOX IMVI melanoma; 3.32 µM in the test with RXF 393 renal; above 10 µM with T-47D breast; 3.89 µM in the test on TK-10 renal; above 10 µM with UO-31 renal; above 10 µM in the test on UACC-257 melanoma. For the same molecule, the TGI in the test with HCT-15 colon was above 10 µM; in the test with SK-OV-3 ovarian, 4.41 µM.
Take `c1ccc(CN2CCC3(CC2)SSC2(CCN(Cc4ccccc4)CC2)S3)cc1`: the TGI in the test with LOX IMVI melanoma, with TK-10 renal, in the test with UO-31 renal, with UACC-257 melanoma, in the test with HCT-15 colon and with SK-OV-3 ovarian was above 100 µM throughout.
As to `O=c1cc(-c2ccccc2F)[nH]c2ccc(N3CCCC3)cc12`, the GI50 is below 0.001 µM in the test with LOX IMVI melanoma; below 0.001 µM with RXF 393 renal; above 100 µM with T-47D breast; 74.9 µM in the test on TK-10 renal; below 0.001 µM with HCT-15 colon; below 0.001 µM with SK-OV-3 ovarian. In addition, the TGI in the test on LOX IMVI melanoma, with RXF 393 renal, in the test on T-47D breast, in the test on TK-10 renal and in the test with UACC-257 melanoma was above 100 µM each time.
For the molecule `COc1ccc(-c2nc(/C=N/Nc3cc(C)nc4ccc(Cl)cc34)c(C)o2)cc1`, the GI50 is 1.74 µM with LOX IMVI melanoma; 1.64 µM in the test on RXF 393 renal; 1.71 µM in the test with T-47D breast; 1.83 µM with TK-10 renal; 1.6 µM with UO-31 renal; 1.7 µM with UACC-257 melanoma. Also, the results for the GI50 in the test with HCT-15 colon and in the test with SK-OV-3 ovarian were 1.52 µM and 1.65 µM, respectively. The TGI was determined as 3.23 µM in the test on LOX IMVI melanoma; 3.14 µM in the test with RXF 393 renal; 3.56 µM in the test on T-47D breast; 3.3 µM with TK-10 renal; 3 µM with UO-31 renal; 3.35 µM in the test with UACC-257 melanoma. The TGI in the test on HCT-15 colon and in the test on SK-OV-3 ovarian was 3.06 µM in each case.
`C#CC1(O)C(COP(=O)(O)OC(COCCCCCCCCCCCCCCCCCC)COP(=O)(O)OCC2OC(n3cc(F)c(=O)[nH]c3=O)CC2O)OC(n2ccc(N)nc2=O)C1O` (stereo not given): the TGI in the test with LOX IMVI melanoma is 7.25 µM and 37.7 µM; in the test with RXF 393 renal it was 17.3 µM and 22.5 µM; in the test with TK-10 renal it was 9.09 µM and 3.83 µM; in the test with UO-31 renal it was 1.15 µM and 4.26 µM; in the test with UACC-257 melanoma, 97.5 µM and 55.8 µM; in the test with HCT-15 colon, > 74.9 µM and 34.4 µM. In addition, in the test on SK-OV-3 ovarian, the TGI was 16.2 µM and > 100 µM. In addition, the GI50 in the test with RXF 393 renal was 0.306 µM and 2.46 µM; in the test with UO-31 renal it was < 0.0376 µM and 0.115 µM; in the test with HCT-15 colon, 0.134 µM and 0.335 µM.
With `NC(=O)c1ccccc1Nc1ccc2nnc(-c3ccncc3)n2n1`, the GI50 is 1.87 µM with LOX IMVI melanoma; 3.77 µM in the test with RXF 393 renal; 4.69 µM with T-47D breast; 6.81 µM in the test on TK-10 renal; 4.49 µM with UO-31 renal; 5.48 µM in the test with HCT-15 colon. In the test on SK-OV-3 ovarian, the GI50 was 15.4 µM. The TGI with LOX IMVI melanoma amounted to 3.75 µM; in the test on RXF 393 renal, 18.1 µM; in the test with T-47D breast, 20.3 µM; in the test on TK-10 renal, 20.7 µM; in the test on UO-31 renal it was 17.6 µM; with HCT-15 colon it was 22.4 µM. This molecule registered a TGI in the test with SK-OV-3 ovarian of 44.4 µM.
For the molecule `COc1c(O)cc2oc(-c3ccc(O)cc3)cc(=O)c2c1O`, the TGI with LOX IMVI melanoma, with RXF 393 renal, with T-47D breast, in the test on TK-10 renal, in the test with UO-31 renal and in the test with UACC-257 melanoma was above 100 µM in each case. The TGI with HCT-15 colon and in the test with SK-OV-3 ovarian was above 100 µM in each case.
Take `Cc1ccc(-c2nc(C#N)c(S(=O)(=O)n3nc(C)cc3N)o2)cc1`: the GI50 is 1.86 µM in the test with LOX IMVI melanoma; 1.87 µM in the test with RXF 393 renal; 2.27 µM in the test with T-47D breast; 1.97 µM in the test on TK-10 renal; 1.74 µM in the test with UO-31 renal; 16.5 µM in the test with UACC-257 melanoma. Further, the GI50 in the test on HCT-15 colon was 1.9 µM; with SK-OV-3 ovarian it was 27.5 µM. Further, the TGI was determined as 3.59 µM in the test with LOX IMVI melanoma; 3.56 µM with RXF 393 renal; 5.76 µM in the test with T-47D breast; 3.6 µM in the test with TK-10 renal; 3.33 µM in the test with UO-31 renal; 30.1 µM in the test with UACC-257 melanoma. In addition, the TGI in the test with HCT-15 colon was 3.72 µM; in the test with SK-OV-3 ovarian, 71.1 µM.
As for `O=C(Nc1cccc(-n2cc(-c3ccncc3)c(-c3cc(O)cc(Cl)c3)n2)c1)Nc1ccc(Cl)c(C(F)(F)F)c1`, the GI50 with LOX IMVI melanoma was 1.97 µM; with RXF 393 renal, 1.42 µM; with T-47D breast, 2.44 µM; with UO-31 renal, 2.1 µM; in the test on UACC-257 melanoma it was 1.99 µM; in the test with HCT-15 colon, 2.21 µM. Also, the GI50 in the test with SK-OV-3 ovarian is 4.11 µM. The TGI in the test on LOX IMVI melanoma turned out to be 4.36 µM; in the test on RXF 393 renal, 3.88 µM; in the test with T-47D breast, 9.27 µM; with UO-31 renal, 6.14 µM; with UACC-257 melanoma, 5.34 µM; in the test on HCT-15 colon, 6.01 µM. The molecule further showed a TGI in the test with SK-OV-3 ovarian of 30.7 µM.
As for `CC(=O)C(=Cc1ccc(C=C(C(C)=O)C(C)=O)cc1)C(C)=O`, the TGI with LOX IMVI melanoma turned out to be 1.91 µM; with RXF 393 renal, 3.51 µM; with T-47D breast it was 8.49 µM; with TK-10 renal, 5.31 µM; with UO-31 renal, 3.1 µM; in the test on UACC-257 melanoma it was 4.48 µM. The TGI in the test on HCT-15 colon was 3.44 µM; in the test on SK-OV-3 ovarian it was 17 µM.
